Reference: patent US20070099237A1, “Reaction co-crystallization of molecular complexes or co-crystals” (The Regents of The University of Michigan, priority 2005, published 2007)
Values after ≈ are worked out from the molar mass of the structure shown. Read-outs that look alike come from different tables or passages of the source.

Test: Solubility of co-crystal and reactants in organic solvents at 25° C.
Format: physicochemical
Conditions: mean +/− deviation; for solubility: organic solvent or mixture, thermodynamic from solid
Procedure: The predicted reduction in solubility of the co-crystal is borne out experimentally as illustrated, for example in FIG. 4, which uses the carbamazepine nicotinamide 1:1 co-crystal (CBZ:NCT) for illustration. The CBZ:NCT co-crystal is known; solubilities for the co-crystal and the reactants CBZ and NCT in three solvents (ethanol, […]) are given in the table.
Solubilities are given at 25° C. and are expressed as the mean +/− the deviation for a sample size of 3. It is noted that only in ethyl acetate is the co-crystal the least soluble component. Accordingly, the co-crystal can be precipitated from equimolar solutions of CBZ and NCT in ethyl acetate to produce the co-crystal by cooling or evaporation methods.

[1] = 2-propanol, sample size 3, read-out: Solubility in 2-Propanol
[2] = ethanol, sample size 3, read-out: Solubility in Ethanol
[3] = ethyl acetate, sample size 3, read-out: Solubility in Ethyl acetate

solubility [1] [mM]	solubility [2] [mM]	solubility [3] [mM]	Solubility in 2-Propanol (2-propanol, sample size 3) [mM]	Solubility in Ethanol (ethanol, sample size 3) [mM]	Solubility in Ethyl acetate (ethyl acetate, sample size 3) [mM]	SMILES
39 ± 3 (≈ 9.21 mg/mL)	108 ± 0.1 (≈ 25.5 mg/mL)	44 ± 0.1 (≈ 10.4 mg/mL)	–	–	–	NC(=O)N1c2ccccc2C=Cc2ccccc21 [CBZ(III), carbamazepine]
–	–	–	44 ± 3	116 ± 3	24 ± 1	NC(=O)N1c2ccccc2C=Cc2ccccc21.NC(=O)c1cccnc1 [CBZ:NCT, Carbamazepine:Nicotinamide co-crystal]
496 ± 4 (≈ 60.6 mg/mL)	841 ± 8 (≈ 103 mg/mL)	98 ± 2 (≈ 12 mg/mL)	–	–	–	NC(=O)c1cccnc1 [NCT(I), Nicotinamide]
